Test results taken from publication PMC11440508, “Dually Labeled Neurotensin NTS1R Ligands for Probing Radiochemical and Fluorescence-Based Binding Assays” (Journal of Medicinal Chemistry, 2024).

Legend:
NTS1R [1] = molecular target: T1, NTS1R (Homo sapiens, UniProt P30989); test: Radiochemical competition binding, adherent CHO-hNTS1R cells; settings: labeled probe [^3H]13 (1.3 nM), 90 min, 23 °C, read-out: RC adherent cells: pKi ± SEM (converted)
NTS1R [2] = molecular target: T1, NTS1R; test: Radiochemical association and dissociation of [^3H]13 at membranes of CHO-hNTS1R cells; format: binding; settings: GppNHp
Procedure: These experiments were performed in 96-well plates using the same procedure as for radiochemical binding experiments with intact suspended cells, but using cell membranes instead of whole cells. Binding of [^3H]13 to the NTS1R was saturable (Figure 6A). […] To note, in addition to GppNHp, saponin (100 μg/mL) was added to the samples to improve ligand permeabilization into vesicles that are likely to occur in membrane preparations. The association curve of [^3H]13 obtained from experiments with cell membranes (Figure 6B) was considerably different compared to the association curve observed for intact suspended cells (cf. Figure 4C). The biphasic character almost disappeared and with a kon value of 0.13 ± 0.05 nM^–1 min^–1 (calculated value ± propagated error) the association was slower compared to the initial phase found for experiments with intact cells (kon = 0.81 nM^–1 min^–1, cf. Table 3). […]
CHO-hNTS1R cells were grown on 175 cm^2 cell culture dishes (ref 83.3903, Sarstedt) to ca. 90% confluency. […] The protein concentration was determined according to the Bradford method[59] in transparent 96-well plates (Greiner Cellstar 655180, Greiner Bio-One, Frickenhausen, Germany) using bovine serum albumin as standard. […]

T1 sequence (P30989 whole entry): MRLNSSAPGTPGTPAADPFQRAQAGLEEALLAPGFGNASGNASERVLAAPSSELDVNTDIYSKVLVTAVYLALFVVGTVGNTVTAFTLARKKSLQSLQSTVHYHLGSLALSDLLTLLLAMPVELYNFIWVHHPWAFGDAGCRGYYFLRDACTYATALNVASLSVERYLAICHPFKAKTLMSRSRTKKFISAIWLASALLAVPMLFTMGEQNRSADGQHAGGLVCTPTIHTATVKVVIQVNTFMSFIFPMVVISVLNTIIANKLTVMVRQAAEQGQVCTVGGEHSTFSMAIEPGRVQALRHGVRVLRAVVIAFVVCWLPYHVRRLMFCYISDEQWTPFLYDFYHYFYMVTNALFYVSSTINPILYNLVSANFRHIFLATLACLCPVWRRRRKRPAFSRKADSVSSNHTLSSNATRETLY

Structure (SMILES)	Ki (NTS1R [1]) [nM]	koff (NTS1R [2]; 23 °C) [s⁻¹]	kon (NTS1R [2]; calculated value ± propagated error) [M⁻¹ s⁻¹]
CCC(=O)NCCCCNC(=O)N=C(N)NCCC[C@H](NC(=O)[C@@H]1CCCN1C(=O)[C@@H](NC(=O)CCc1cn(CCCNC(=O)c2ccc(-c3c4ccc(=[N+](C)C)cc-4oc4cc(N(C)C)ccc34)c(C(=O)[O-])c2)nn1)C1CCNCC1)C(=O)N[C@@H](CCCNC(=N)N)C(=O)N1CCC[C@H]1C(=O)N[C@@H](Cc1ccc(O)cc1)C(=O)N[C@H](C(=O)N[C@@H](CC(C)C)C(=O)O)[C@@H](C)CC [Compound 13, N^α-(3-(1-N-((1-Carboxylato-2-(6-(dimethylamino)-3-(dimethyliminio)-3H-xanthen-9-yl)phen-5-yl)1-oxomethyl)aminoprop-3-yl-1H-1,2,3-triazol-4-yl)propanoyl)-2-(piperidin-4-yl)-Gly-Pro-N^ω-[(4-(N-propanoyl)aminobutyl)aminocarbonyl]Arg-Arg-Pro-Tyr-Ile-Leu Tris(hydrotrifluoroacetate)]	1.51	–	–
CCC(=O)NCCCCNC(=O)NC(=N)NCCC[C@H](NC(=O)[C@@H]1CCCN1C(=O)[C@@H](NC(=O)CCc1cn(CCCNC(=O)c2ccc(-c3c4ccc(=[N+](C)C)cc-4oc4cc(N(C)C)ccc34)c(C(=O)[O-])c2)nn1)C1CCNCC1)C(=O)N[C@@H](CCCNC(=N)N)C(=O)N1CCC[C@H]1C(=O)N[C@@H](Cc1ccc(O)cc1)C(=O)N[C@H](C(=O)N[C@@H](CC(C)C)C(=O)O)[C@@H](C)CC [[^3H]13]	–	0.00617	2.17e+06
